Earlier results in patent EP2090292A1, “Means and methods for controlling commensales” (B.R.A.I.N. Biotechnology Research and Information Network AG, priority 2008, dated 2009).
“Also recorded” adds a separate entry of the source.

Test system: Gram-positive and Gram-negative bacteria
Conditions: prior art, Torres et al. (1998); biofilm not assayed

CC1OC(=O)C(C2OC2C)=CC1O (stereo not shown) [aspyrone, 6-Dihydro-5-hydroxy-6-methyl-3-(3-methyloxiranyl)-2H-pyran-2-one]
inhibitory activity against Gram-positive and Gram-negative bacteria: weak inhibitory activity; also recorded: weak to negligible activity
